Measured values from patent publication US4966914A, “Oculoselective beta-blockers as antiglaucoma agents” (E. I. Du Pont de Nemours and Company, priority 1988, dated 1990).
Like-named read-outs stand apart in the source and are kept apart here. Values belong to the compound of their own block, whether it stands above or below them.

Tests used:
ATRIA = molecular target: T1, ATRIA (Cavia porcellus, UniProt H0W3H1); assay: In vitro potency (pA2), beta-blocking, atria; assay type: cell-based
T1 construct: ATRIA; from tissue
Procedure: (§1) The in vitro potency (pA2), in vivo potency and duration of action (DOA) of the compounds of the present invention are recorded in Tables 2 to 4. These pharmacological activities were determined using the methods described in U.S. patent 4,582,855 issued Apr.

[1] = Ocular bioavailability in rabbits; assay type: in vivo, New Zealand White Rabbits; details: for Absorption across the cornea: 0.25% Timolol or 0.5% compound 1, topical; for Tmax: rabbit, topical or ocular; for Area under the concentration time curve (AUC0-240'), AH / Area under the concentration time curve (AUC0-240'), I-CBC / Area under the concentration time curve (AUC0-240'), cornea: 0-240 min
Procedure: The ocular bioavailability of Timolol and compound 1 (monopivaloyl ester prodrug of compound 2) was evaluated in New Zealand White Rabbits. Fifty μL of a solution of 0.25% Timolol or 0.5% compound 1 (both in the same vehicle) were administered onto the cornea of both eyes of 48 rabbits (24 rabbits/compound). At 5, 15, 30, 60, 120, 180, 240, and 360 minutes after dosing, 3 rabbits (6 eyes)/compound were killed. The cornea, aqueous humor (AH), iris-ciliary body complex (I-CBC) were quickly removed from the eyes, weighed and processed to determine tissue levels of Timolol or compound 1 and compound 2.

[2] = tested on: isoproterenol-induced changes in heart rate or diastolic blood pressure; assay: Effect on systemic beta-blockade upon topical administration (isoproterenol-induced changes in heart rate or diastolic blood pressure); assay type: in vivo, Mongrel dogs; details: for Diastolic blood pressure response to isoproterenol: from-to; for Diastolic blood pressure (DBP) / Heart rate (HR): Table 1, 0.5%; for Summary: BP / Summary: BP change / Summary: HR change: Table 1 summary; for Summary: BP: from ISO only to end of experiment; for Summary: BP change / Summary: HR change: given as "down"
Procedure: Mongrel dogs were anesthetized and control readings were made at -45 and -30 minutes. Following the -30 minute reading, an infusion of isoproterenol (0.5 μg/kg/min) was begun and maintained during the course of the experiment. Two readings of pretreatment isoproterenol responses were made at […] and at zero minutes.
At zero minutes, a 50 μL sample of test compound was administered topically. […] Heart rate was obtained directly from the strip chart recording.

beta-blocking effects = assay: In vivo beta-blocking potency and duration of action (DOA); details: Tables 2 and 4
Procedure: as §1

[3] = Table 3, atria, read-out: pA2 ATRIA (converted)
[4] = aqueous humor, AH, 0.25% Timolol or 0.5% compound 1, read-out: Time of peak level in aqueous humor (AH) (converted)
[5] = cornea, 0.25% Timolol or 0.5% compound 1, read-out: Time of peak level in cornea (converted)
[6] = 50 μL, 0.25% solution, single or repeated topical applications
[7] = 15 min post-treatment, isoproterenol infusion
[8] = 30 min post-treatment, isoproterenol infusion
[9] = 45 min post-treatment, isoproterenol infusion
[10] = 60 min post-treatment (dose), isoproterenol infusion
[11] = 75 min post-treatment, isoproterenol infusion
[12] = 90 min post-treatment, isoproterenol infusion
[13] = 105 min post-treatment, isoproterenol infusion
[14] = 120 min post-treatment (dose), isoproterenol infusion
[15] = 135 min post-treatment, isoproterenol infusion
[16] = 150 min post-treatment, isoproterenol infusion
[17] = 165 min post-treatment, isoproterenol infusion
[18] = 180 min post-treatment, isoproterenol infusion
[19] = AH, 0.25% Timolol or 0.5% compound 1
[20] = I-CBC, 0.25% Timolol or 0.5% compound 1
[21] = cornea, 0.25% Timolol or 0.5% compound 1
[22] = 50 μL, 0.25% solution, single topical application

T1 sequence (H0W3H1 1-470): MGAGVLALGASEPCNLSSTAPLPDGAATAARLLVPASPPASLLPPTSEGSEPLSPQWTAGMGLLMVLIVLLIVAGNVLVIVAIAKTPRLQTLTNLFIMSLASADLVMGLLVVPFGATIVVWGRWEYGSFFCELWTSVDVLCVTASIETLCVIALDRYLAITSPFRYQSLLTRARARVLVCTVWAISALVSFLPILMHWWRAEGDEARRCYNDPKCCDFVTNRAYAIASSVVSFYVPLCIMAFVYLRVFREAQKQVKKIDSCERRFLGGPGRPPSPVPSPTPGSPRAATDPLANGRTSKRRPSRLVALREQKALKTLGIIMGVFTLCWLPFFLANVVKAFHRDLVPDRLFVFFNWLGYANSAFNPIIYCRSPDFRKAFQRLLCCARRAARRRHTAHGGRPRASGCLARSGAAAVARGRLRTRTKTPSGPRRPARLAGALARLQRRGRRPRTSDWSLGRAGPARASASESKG

SMILES: CC(C)(CNC(=O)C1CCCCC1)NCC(O)COC(=O)c1ccc(O)c(O)c1 (centres unmarked)
Kb (ATRIA; [3]): 6.31 nM

SMILES: Cc1cc(O)c(O)cc1C(=O)OCC(CNC(C)(C)CNC(=O)C1CCOC1)OC(=O)C(C)(C)C (centres unmarked) [Compound 1]
Absorption across the cornea [1]: rapidly absorbed across the cornea | Metabolism of compound 1 to compound 2 ([1]; 0.5% compound 1, topical): rapid metabolism of compound 1 to compound 2 | AUC in AH relative to AUC of Timolol in AH ([1]; 0.5% compound 1 vs 0.25% Timolol, greater than Timolol): 3 × | Detectability in I-CBC ([1]; I-CBC, 0.5% compound 1): not detectable | Tmax [1, 4]: 30 min | Tmax [1, 5]: 5 min | Effect on diastolic blood pressure response to isoproterenol ([2]; 50 μL at 0.5 or 1.0% solution): without any significant effect | Systemic beta-blockade of isoproterenol-induced increase in heart rate ([2]; 50 μL at 0.5 or 1.0% solution): no significant systemic beta-blockade | Diastolic blood pressure response to isoproterenol ([2]; 50 μL at 0.5 or 1.0% solution): 58-63 mmHg | Effect on diastolic blood pressure response to isoproterenol [2, 6]: no effect | Effect on heart rate response to isoproterenol [2, 6]: no effect | Diastolic blood pressure (DBP) ([2]; 0 min, ISO only): 58 mmHg | Heart rate (HR) ([2]; 0 min, ISO only): 199 bpm | Diastolic blood pressure (DBP) [2, 7]: 56 mmHg | Heart rate (HR) [2, 7]: 195 bpm | Diastolic blood pressure (DBP) [2, 8]: 55 mmHg | Heart rate (HR) [2, 8]: 192 bpm | Diastolic blood pressure (DBP) [2, 9]: 54 mmHg | Heart rate (HR) [2, 9]: 188 bpm | Diastolic blood pressure (DBP) [2, 10]: 55 mmHg | Heart rate (HR) [2, 10]: 189 bpm | Diastolic blood pressure (DBP) [2, 11]: 55 mmHg | Heart rate (HR) [2, 11]: 189 bpm | Diastolic blood pressure (DBP) [2, 12]: 56 mmHg | Heart rate (HR) [2, 12]: 189 bpm | Diastolic blood pressure (DBP) [2, 13]: 57 mmHg | Heart rate (HR) [2, 13]: 190 bpm | Diastolic blood pressure (DBP) [2, 14]: 59 mmHg | Heart rate (HR) [2, 14]: 192 bpm | Diastolic blood pressure (DBP) [2, 15]: 61 mmHg | Heart rate (HR) [2, 15]: 192 bpm | Diastolic blood pressure (DBP) [2, 16]: 60 mmHg | Heart rate (HR) [2, 16]: 192 bpm | Diastolic blood pressure (DBP) [2, 17]: 60 mmHg | Heart rate (HR) [2, 17]: 192 bpm | Diastolic blood pressure (DBP) [2, 18]: 63 mmHg | Heart rate (HR) [2, 18]: 193 bpm | Diastolic blood pressure (DBP) ([2]; -30 min, baseline): 87 mmHg | Heart rate (HR) ([2]; -30 min, baseline): 143 bpm | Summary: BP [2]: 58-63 mmHg | Summary: BP change [2]: 5 mmHg | Summary: HR change [2]: 6 bpm | Systemic beta-blocking activity as compared to Timolol ([2]; conclusion in words): has systemic beta-blocking activity as compared to Timolol | Selectivity of peripheral effects ([2]; high concentration, unlike Timolol): selective for beta-1 (heart rate) responses

SMILES: Cc1cc(O)c(O)cc1C(=O)OCC(O)CNC(C)(C)CNC(=O)C1CCOC1 (centres unmarked) [Compound 2]
Area under the concentration time curve (AUC0-240'), AH [1, 19]: 27,377 ng/100 μL/min | Area under the concentration time curve (AUC0-240'), I-CBC [1, 20]: 2,981 ng/50 mg/min | Area under the concentration time curve (AUC0-240'), cornea [1, 21]: 95,789 ng/50 mg/min | Stability in rabbit ocular tissues ([1]; rabbit ocular tissues): stable in rabbit ocular tissues

SMILES: Cc1cc(O)c(O)cc1C(=O)OCC(O)CNC(C)(C)CNC(N)=O (centres unmarked) [Me NH2]
Kb (ATRIA; [3]): 1.26 nM

SMILES: CCOc1cc(O)c(O)cc1C(=O)OCC(O)CNC(C)(C)CNC(=O)C(C)C (centres unmarked) [OEt]
DOA (duration of action) (beta-blocking effects): 22 min

SMILES: COc1cc(O)c(O)cc1C(=O)OCC(O)CNC(C)(C)CNC(=O)C(C)C (centres unmarked) [OMe]
DOA (duration of action) (beta-blocking effects): 30 min

SMILES: Cc1cc(O)c(O)cc1C(=O)OCC(O)CNC(C)(C)CNC(=O)C1CCOC1 (centres unmarked) [drawing 25]
DOA (duration of action) (beta-blocking effects): 49 min | Kb (ATRIA; Tables 2 and 4, read-out: In-vitro potency pA2 (converted)): 1.58 nM

Further lines, with some results ahead:

Kb (ATRIA; [3]): 31.6 nM
SMILES: COc1ccc(C(=O)NCC(C)(C)NCC(O)COC(=O)c2cc(O)c(O)cc2C)cc1 (centres unmarked)

Kb (ATRIA; [3]): 100 nM
SMILES: Cc1cc(O)c(O)cc1C(=O)OCC(O)CNC(C)(C)CNC(=O)c1ccccc1F (centres unmarked)

Kb (ATRIA; [3]): 25.1 nM
SMILES: Cc1cc(O)c(O)cc1C(=O)OCC(O)CNC(C)(C)CNC(=O)c1ccoc1 (centres unmarked)

Kb (ATRIA; [3]): 25.1 nM
SMILES: CC(=O)NCC(C)(C)NCC(O)COC(=O)c1cc(O)c(O)cc1C (centres unmarked) [Me CH3]

Area under the concentration time curve (AUC0-240'), AH [1, 19]: 9,022 ng/100 μL/min | Peak level in aqueous humor (AH) [1, 19]: 131 ng/100 μL | Area under the concentration time curve (AUC0-240'), I-CBC [1, 20]: 533 ng/50 mg/min | Peak level in iris-ciliary body complex (I-CBC) ([1]; I-CBC, 0.25% Timolol): 58 ng/50 mg | Area under the concentration time curve (AUC0-240'), cornea [1, 21]: 68,293 ng/50 mg/min | Peak cornea level ([1]; cornea, 50 μL onto cornea, 0.25% Timolol or 0.5% compound 1): 770 ng/50 mg | Tmax [1, 4]: 30 min | Tmax ([1]; iris-ciliary body, I-CBC, 0.25% Timolol, read-out: Time of peak level in I-CBC (converted)): 30 min | Tmax [1, 5]: 5 min
SMILES: CC(C)(C)NC[C@H](O)COc1nsnc1N1CCOCC1 [Timolol, reference compound]
Absorption across the cornea [1]: rapidly absorbed across the cornea into the AH and I-CBC | Antagonism of diastolic blood pressure response to isoproterenol [2, 22]: long lasting antagonism | Effect on heart rate response to isoproterenol [2, 22]: significant inhibitory effect | Diastolic blood pressure response to isoproterenol [2, 22]: 72-107 mmHg | Diastolic blood pressure (DBP) ([2]; 0 min, ISO only): 72 mmHg | Heart rate (HR) ([2]; 0 min, ISO only): 197 bpm | Diastolic blood pressure (DBP) [2, 7]: 93 mmHg | Heart rate (HR) [2, 7]: 175 bpm | Diastolic blood pressure (DBP) [2, 8]: 94 mmHg | Heart rate (HR) [2, 8]: 158 bpm | Diastolic blood pressure (DBP) [2, 9]: 96 mmHg | Heart rate (HR) [2, 9]: 155 bpm | Diastolic blood pressure (DBP) [2, 10]: 99 mmHg | Heart rate (HR) [2, 10]: 157 bpm | Diastolic blood pressure (DBP) [2, 11]: 102 mmHg | Heart rate (HR) [2, 11]: 157 bpm | Diastolic blood pressure (DBP) [2, 12]: 103 mmHg | Heart rate (HR) [2, 12]: 152 bpm | Diastolic blood pressure (DBP) [2, 13]: 104 mmHg | Heart rate (HR) [2, 13]: 153 bpm | Diastolic blood pressure (DBP) [2, 14]: 105 mmHg | Heart rate (HR) [2, 14]: 157 bpm | Diastolic blood pressure (DBP) [2, 15]: 107 mmHg | Heart rate (HR) [2, 15]: 154 bpm | Diastolic blood pressure (DBP) [2, 16]: 107 mmHg | Heart rate (HR) [2, 16]: 153 bpm | Diastolic blood pressure (DBP) [2, 17]: 105 mmHg | Heart rate (HR) [2, 17]: 153 bpm | Diastolic blood pressure (DBP) [2, 18]: 107 mmHg | Heart rate (HR) [2, 18]: 159 bpm | Heart rate (HR) ([2]; -30 min, baseline): 144 bpm | Summary: BP [2]: 71-107 mmHg | Summary: BP change [2]: 35 mmHg | Summary: HR change [2]: 38 bpm | Systemic beta-blockade ([2]; four topical applications, 50 μL, 0.25% solution, 60 minute intervals): prolonged systemic beta-blockade

Kb (ATRIA; [3]): 12.6 nM
SMILES: COc1cc(O)c(O)cc1C(=O)OCC(O)CNC(C)(C)CNC(=O)C(C)C (centres unmarked) [drawing 30]

Kb (ATRIA; [3]): 20 nM
SMILES: CCOc1cc(O)c(O)cc1C(=O)OCC(O)CNC(C)(C)CNC(=O)C(C)C (centres unmarked) [drawing 32]
